Source: ChEMBL document CHEMBL1133318, “Isoniazid-related copper(II) and nickel(II) complexes with antimycobacterial in vitro activity. Part 9” (Bioorg Med Chem Lett, 2000)
In brackets after ≈: the same amount, converted by molar mass.

Key:
[1] = system: Mycobacterium tuberculosis; experiment: In vitro anti-mycobacterial activity against Mycobacterium tuberculosis H37Rv (Rifampin and Isoniazid susceptible ATCC 27294 strain); format: functional; parameters: concentration or dose not given beside the values
[2] = system: Mycobacterium tuberculosis; experiment: In vitro antimicrobacterial activity to inhibit 90% of Mycobacterium tuberculosis H37Rv (Rifampin and Isoniazid susceptible ATCC 27294 strain), relative to that of controls; format: functional
Mycobacterium avium = experiment: In vitro anti-mycobacterial activity against Mycobacterium avium at 12.5 ug/mL; format: functional
[3] = Safety index from cytotoxicity to that of minimal inhibitory concentration; format: toxicity; conditions: read-out: S.I
Vero = experiment: Compound was tested for its cytotoxicity on Vero cells; format: functional, cell-based; conditions: Chlorocebus sabaeus

| SMILES | Inhibition [1] | MIC [2] | inhibition at 12.5 µg/mL (Mycobacterium avium) | selectivity ratio [3] | IC50 (Vero) |
| --- | --- | --- | --- | --- | --- |
| COc1ccc(/C=N/NC(=O)c2ccncc2)cc1F | 99% | < 0.2 µg/mL |  |  |  |
| O=C(N/N=C/c1ccc(C(F)(F)F)cc1)c1ccncc1 | 100% | < 0.2 µg/mL | 82% |  |  |
| O=C(N/N=C/c1ccccc1F)c1ccncc1 | 100% | 0.05 µg/mL (≈ 0.206 µM) |  | 168 | 8.4 µg/mL (≈ 34.5 µM) |
| C/C(=N\NC(=O)c1ccncc1)c1ccc(Cl)c(Cl)c1 | 100% | < 0.2 µg/mL |  |  |  |
| O=C(N/N=C(\c1ccccc1)C(F)(F)F)c1ccncc1 | 100% | 6.25 µg/mL (≈ 21.3 µM) |  |  |  |
| C/C(=N\NC(=O)c1ccncc1)C(F)(F)F | 99% | 0.05 µg/mL (≈ 0.216 µM) |  |  |  |
| O=C(N/N=C/C(F)(F)F)c1ccncc1 | 100% | 0.05 µg/mL (≈ 0.23 µM) |  |  |  |
| C/C(=N\NC(=O)c1ccncc1)c1ccccc1F | 100% | 0.2 µg/mL (≈ 0.777 µM) |  | > 625 | > 125 µg/mL |
| C/C=N/NC(=O)c1ccncc1 | 99% | 0.025 µg/mL (≈ 0.153 µM) |  |  |  |
| C/C(=N\NC(=O)c1ccncc1)c1ccc(F)cc1 | 99% | < 0.2 µg/mL |  | > 50 | > 10 µg/mL |
| O=C(N/N=C/c1cccc(F)c1)c1ccncc1 | 99% | < 0.2 µg/mL | 82% | > 31.2 | > 6.25 µg/mL |
| O=C(N/N=C/c1cccc(C(F)(F)F)c1)c1ccncc1 | 99% | 0.1 µg/mL (≈ 0.341 µM) |  | > 100 | > 10 µg/mL |
| C/C(=N\NC(=O)c1ccncc1)c1cccc(F)c1 | 100% | < 0.05 µg/mL |  |  |  |
| NNC(=O)c1ccncc1 [ISONIAZID] |  | 0.05 µg/mL (≈ 0.365 µM) |  |  | > 1000 µg/mL |
| CO[C@H]1/C=C/O[C@@]2(C)Oc3c(C)c(O)c4c(O)c(c(/C=N/N5CCN(C)CC5)c(O)c4c3C2=O)NC(=O)/C(C)=C\C=C\[C@H](C)[C@H](O)[C@@H](C)[C@@H](O)[C@@H](C)[C@H](OC(C)=O)[C@@H]1C [RIFAMPIN] |  | 0.06 µg/mL (≈ 0.0729 µM) |  |  | 147 µg/mL (≈ 179 µM) |
